Laboratory results from ChEMBL document CHEMBL1201862, “PubChem BioAssay data set” (2004).
The source made the active and inactive calls.

Key:
[1] = non-specific cell cytotoxicity, dose response, cytotoxicity control for PAX8 inhibitor project, plate reader, dry powder samples (AID 743021); format: functional, cell-based
Vero = assay: cells; format: functional; settings: Chlorocebus sabaeus
[2] = Fluorescence-based cell-based high throughput dose response assay for inhibitors of the interaction of nucleotide-binding oligomerization domain containing 2 (NOD2) and the receptor-interacting serine-threonine kinase 2 (RIPK2).; format: functional; settings: Homo sapiens
[3] = target: Heat shock protein HSP 90-alpha (Homo sapiens, UniProt P07900); format: functional, organism-based
Beta Lactamase = Beta Lactamase (Pseudomonas aeruginosa, UniProt Q932Y6); assay: beta-lactamase reporter inhibitor potency, dose response, artefact control for NOD2-RIPK2 interaction inhibitor project, BLA reporter cells, FRET fluorescence (AID 651552); format: functional, cell-based
Sequence of Beta Lactamase (Q932Y6 whole entry): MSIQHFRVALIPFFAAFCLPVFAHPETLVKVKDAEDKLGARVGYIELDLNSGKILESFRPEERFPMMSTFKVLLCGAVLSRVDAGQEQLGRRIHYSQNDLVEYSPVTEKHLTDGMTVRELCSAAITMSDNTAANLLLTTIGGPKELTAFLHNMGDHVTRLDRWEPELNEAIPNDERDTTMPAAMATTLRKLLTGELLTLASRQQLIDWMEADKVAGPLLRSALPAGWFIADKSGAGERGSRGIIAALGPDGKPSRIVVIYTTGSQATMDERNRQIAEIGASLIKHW

Paired box protein Pax-8 = Paired box protein Pax-8 (Homo sapiens, UniProt Q06710); assay: inhibitors of PAX8-driven TPO luciferase reporter, dose response, RMG-I cells, cherry-pick (AID 687027); format: functional, cell-based;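 further: luciferase reporter driven by Pax8 target thyroperoxidase promoter measured by SteadyGlo luminescence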
Sequence of Paired box protein Pax-8 (Q06710 whole entry): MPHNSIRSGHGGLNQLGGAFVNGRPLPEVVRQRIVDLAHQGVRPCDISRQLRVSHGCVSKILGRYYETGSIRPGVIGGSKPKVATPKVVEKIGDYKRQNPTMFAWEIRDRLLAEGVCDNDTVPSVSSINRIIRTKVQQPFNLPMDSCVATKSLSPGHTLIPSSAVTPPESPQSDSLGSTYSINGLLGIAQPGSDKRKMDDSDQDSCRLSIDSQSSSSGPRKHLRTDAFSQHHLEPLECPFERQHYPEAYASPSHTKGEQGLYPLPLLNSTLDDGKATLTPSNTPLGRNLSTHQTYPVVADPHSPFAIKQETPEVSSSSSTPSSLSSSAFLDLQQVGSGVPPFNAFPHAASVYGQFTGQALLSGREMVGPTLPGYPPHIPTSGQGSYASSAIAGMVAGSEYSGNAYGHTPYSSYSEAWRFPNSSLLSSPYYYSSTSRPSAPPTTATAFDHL

[4] = target: T1, Small ubiquitin-related modifier 1 (Homo sapiens, UniProt P63165); assay: inhibitors of SUMO1 peptide binding, dose response, biochemical, fluorescence polarization, uHTS hits (AID 624382); format: functional; settings: read-out: IC50_Mean
T1 sequence (P63165 whole entry): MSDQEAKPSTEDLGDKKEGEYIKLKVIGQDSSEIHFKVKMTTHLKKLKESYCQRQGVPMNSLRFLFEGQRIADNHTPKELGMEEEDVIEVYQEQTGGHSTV

[5] = target: T1, Small ubiquitin-related modifier 1; assay: inhibitors of SUMO1 partner interactions, dose response, biochemical, FRET (AID 624383); format: functional; settings: read-out: IC50_Mean
[6] = miR-122 activators in hepatoma reporter cells, dose response, cell-based, Huh7 psiCHECK-miR122, Renilla luciferase, cherry-picked (AID 651956); format: functional;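 further: huh7 hepatoma cells stably carrying a psiCHECK-2 miR-122 sensor plasmid; renilla luciferase signal reporting endogenous miR-122 activity after 48 h compound exposure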
[7] = target: T2, Sentrin-specific protease 8 (Homo sapiens, UniProt Q96LD8); format: functional
T2 sequence (Q96LD8 whole entry): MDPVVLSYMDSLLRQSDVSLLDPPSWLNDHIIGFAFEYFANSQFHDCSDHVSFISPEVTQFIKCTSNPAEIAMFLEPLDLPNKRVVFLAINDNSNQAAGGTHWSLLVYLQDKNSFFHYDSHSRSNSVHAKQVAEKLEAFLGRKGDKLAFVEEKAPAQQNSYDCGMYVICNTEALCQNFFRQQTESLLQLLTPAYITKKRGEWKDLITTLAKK

Protein RecA = target: T3, Protein RecA (Mycobacterium tuberculosis, UniProt P9WHJ3); assay: Fluorescence Cell-Free Homogeneous Dose Retest to Identify Inhibitors of RecA-Intein Splicing Activity. [Related pubchem assays (depositor defined):AID2097, AID2223, AID489010, AID492950]; format: functional
T3 sequence (P9WHJ3 whole entry): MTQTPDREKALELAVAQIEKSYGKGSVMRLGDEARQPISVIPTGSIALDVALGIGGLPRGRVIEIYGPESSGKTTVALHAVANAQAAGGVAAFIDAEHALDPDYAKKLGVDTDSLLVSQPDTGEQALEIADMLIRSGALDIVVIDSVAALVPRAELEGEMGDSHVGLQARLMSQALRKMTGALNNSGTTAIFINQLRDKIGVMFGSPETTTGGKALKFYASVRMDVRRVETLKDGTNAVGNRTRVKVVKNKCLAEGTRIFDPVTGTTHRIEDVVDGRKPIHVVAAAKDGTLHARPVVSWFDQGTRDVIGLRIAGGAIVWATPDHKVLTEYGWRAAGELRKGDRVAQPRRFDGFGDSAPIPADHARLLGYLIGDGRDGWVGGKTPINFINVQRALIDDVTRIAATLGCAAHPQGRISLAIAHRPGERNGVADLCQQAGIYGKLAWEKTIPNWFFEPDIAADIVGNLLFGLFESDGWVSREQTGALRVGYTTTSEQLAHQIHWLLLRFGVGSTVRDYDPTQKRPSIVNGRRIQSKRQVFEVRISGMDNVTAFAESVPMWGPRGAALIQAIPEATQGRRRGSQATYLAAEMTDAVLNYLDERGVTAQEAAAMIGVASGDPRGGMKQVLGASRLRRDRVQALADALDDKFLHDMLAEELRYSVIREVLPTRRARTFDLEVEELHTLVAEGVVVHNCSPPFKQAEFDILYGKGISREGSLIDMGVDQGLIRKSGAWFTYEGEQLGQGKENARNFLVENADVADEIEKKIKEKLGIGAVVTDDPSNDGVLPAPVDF

[8] = target: T4, Replicative DNA helicase DnaB (Mycobacterium tuberculosis, UniProt P9WMR3); assay: DnaB intein splicing inhibitors, dose response, biochemical, cell-free fluorescence (AID 449749); format: functional
T4 sequence (P9WMR3 whole entry): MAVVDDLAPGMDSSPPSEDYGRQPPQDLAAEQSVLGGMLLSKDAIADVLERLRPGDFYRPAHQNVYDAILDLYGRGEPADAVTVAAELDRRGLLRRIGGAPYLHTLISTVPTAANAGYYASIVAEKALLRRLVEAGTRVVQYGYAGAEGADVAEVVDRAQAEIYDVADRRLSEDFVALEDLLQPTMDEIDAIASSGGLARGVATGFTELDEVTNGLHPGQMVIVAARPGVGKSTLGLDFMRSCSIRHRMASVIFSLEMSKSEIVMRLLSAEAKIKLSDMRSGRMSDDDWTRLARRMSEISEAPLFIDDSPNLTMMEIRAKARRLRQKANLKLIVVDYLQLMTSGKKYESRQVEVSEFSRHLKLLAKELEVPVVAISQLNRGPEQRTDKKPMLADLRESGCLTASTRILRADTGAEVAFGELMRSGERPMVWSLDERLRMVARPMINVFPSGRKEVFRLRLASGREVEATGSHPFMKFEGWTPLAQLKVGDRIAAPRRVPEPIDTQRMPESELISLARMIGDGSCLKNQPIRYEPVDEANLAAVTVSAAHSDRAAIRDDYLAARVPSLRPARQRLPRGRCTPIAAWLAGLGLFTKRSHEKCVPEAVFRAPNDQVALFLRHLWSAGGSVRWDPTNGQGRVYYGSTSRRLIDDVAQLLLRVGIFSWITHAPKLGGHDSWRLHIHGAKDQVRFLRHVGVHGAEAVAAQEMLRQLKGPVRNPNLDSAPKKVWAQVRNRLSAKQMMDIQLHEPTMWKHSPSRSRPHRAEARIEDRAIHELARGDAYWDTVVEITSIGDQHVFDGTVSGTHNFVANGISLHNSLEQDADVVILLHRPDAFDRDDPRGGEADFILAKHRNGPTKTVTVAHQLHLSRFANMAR

With `COC(=O)C1=C(C(=O)OC)C2OC1c1cc3ccccc3cc12` the AC50 [1] was 23 µM (active), the CC50 (Vero) was > 25 µM (active) and the IC50 [2] was 1.63 µM (active). For the same molecule, the AC50 [3] was 1.59 µM (active), the IC50 (Beta Lactamase) was 10.1 µM (inactive) and the AC50 (Paired box protein Pax-8) was 5.41 µM (active).
For `CC(=O)c1cccc(NC(=O)c2cccc3c(-c4cccc(C(N)=O)c4)coc23)c1`, the IC50 [4] was > 66.6 µM (inactive) and the IC50 [5] was 20.4 µM (inactive).
For `COc1cccc(NC(=O)N(C)C[C@@H]2Oc3ncc(C#Cc4ccncc4)cc3C(=O)N([C@@H](C)CO)C[C@H]2C)c1`, the AC50 [6] was 36.1 µM (active).
In the case of `COc1ccc(-c2cc(=O)n(CCC#N)[nH]2)cc1`, the IC50 [7] is reported as 50.8 µM (active), the EC50 (Protein RecA) is reported as 1.02 µM (active) and the AC50 [8] is reported as 2.05 µM (active).
